Assay results: paper PMC6318801 (European journal of medicinal chemistry, 2018)
Structures can show the parent of a compound that is named as a salt. Where two headings read alike, the source gives them in different places. Each block holds one compound with its values, some of them ahead of it.

Key:
[1] = Impact of human serum protein binding on inhibitory activity; type: cell-based; conditions: Figure S4
[2] = biological target: human IDO1 expressed endogenously in HeLa cells (Homo sapiens, UniProt P14902); experiment: Cell-based IDO1 inhibition assay
human IDO1 expressed endogenously in HeLa cells, sequence (P14902 whole entry): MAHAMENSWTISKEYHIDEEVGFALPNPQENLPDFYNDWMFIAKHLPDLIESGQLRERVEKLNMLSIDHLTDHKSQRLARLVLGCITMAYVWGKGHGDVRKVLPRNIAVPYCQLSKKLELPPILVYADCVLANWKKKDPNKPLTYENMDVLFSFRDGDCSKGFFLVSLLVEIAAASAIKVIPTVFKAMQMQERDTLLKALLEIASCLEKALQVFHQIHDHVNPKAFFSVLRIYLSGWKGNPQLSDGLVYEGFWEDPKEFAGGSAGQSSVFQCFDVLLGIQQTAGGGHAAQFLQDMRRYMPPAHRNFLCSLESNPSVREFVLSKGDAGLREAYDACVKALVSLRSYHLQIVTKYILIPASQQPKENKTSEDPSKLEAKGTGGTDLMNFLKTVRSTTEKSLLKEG

[3] = biological target: T1, mouse IDO2 expressed exogenously in T-Rex cells (Mus musculus, UniProt Q8R0V5); experiment: Cell-based IDO2 inhibition assay; conditions: for Greater potency for IDO1 and TDO over IDO2 (cell-based): cell-based IC50 ratio
T1 sequence (Q8R0V5 1-405): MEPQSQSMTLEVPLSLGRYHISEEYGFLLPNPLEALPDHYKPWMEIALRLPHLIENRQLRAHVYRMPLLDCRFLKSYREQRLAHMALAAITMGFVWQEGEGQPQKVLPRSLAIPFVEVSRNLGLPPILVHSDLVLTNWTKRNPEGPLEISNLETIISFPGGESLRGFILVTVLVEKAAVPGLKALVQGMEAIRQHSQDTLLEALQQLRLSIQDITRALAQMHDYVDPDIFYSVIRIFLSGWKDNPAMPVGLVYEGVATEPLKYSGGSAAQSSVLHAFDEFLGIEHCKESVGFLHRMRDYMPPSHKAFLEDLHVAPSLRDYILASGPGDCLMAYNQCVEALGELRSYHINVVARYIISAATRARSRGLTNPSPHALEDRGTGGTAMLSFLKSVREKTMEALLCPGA

[4] = biological target: human TDO expressed exogenously in T-Rex cells (Homo sapiens, UniProt P48775); experiment: Cell-based TDO inhibition assay
human TDO expressed exogenously in T-Rex cells, sequence (P48775 whole entry): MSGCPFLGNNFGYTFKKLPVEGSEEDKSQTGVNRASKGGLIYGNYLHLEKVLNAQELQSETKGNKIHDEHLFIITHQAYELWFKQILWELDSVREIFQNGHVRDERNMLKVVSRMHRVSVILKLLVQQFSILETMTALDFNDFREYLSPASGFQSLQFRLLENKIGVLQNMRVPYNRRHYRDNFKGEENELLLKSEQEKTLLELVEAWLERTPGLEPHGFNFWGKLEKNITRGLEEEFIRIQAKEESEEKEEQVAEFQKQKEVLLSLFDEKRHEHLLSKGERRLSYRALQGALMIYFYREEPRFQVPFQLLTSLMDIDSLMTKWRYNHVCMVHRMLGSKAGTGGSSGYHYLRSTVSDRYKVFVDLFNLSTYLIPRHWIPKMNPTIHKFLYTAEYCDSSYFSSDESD

TDO = TDO (Homo sapiens, UniProt P48775); experiment: Enzyme-based TDO inhibition assay
TDO, sequence (P48775 whole entry, species assumed): as the sequence (P48775 whole entry) above

IDO2 = IDO2 (Homo sapiens, UniProt Q6ZQW0); experiment: Enzyme-based IDO2 inhibition assay
IDO2, sequence (Q6ZQW0 whole entry): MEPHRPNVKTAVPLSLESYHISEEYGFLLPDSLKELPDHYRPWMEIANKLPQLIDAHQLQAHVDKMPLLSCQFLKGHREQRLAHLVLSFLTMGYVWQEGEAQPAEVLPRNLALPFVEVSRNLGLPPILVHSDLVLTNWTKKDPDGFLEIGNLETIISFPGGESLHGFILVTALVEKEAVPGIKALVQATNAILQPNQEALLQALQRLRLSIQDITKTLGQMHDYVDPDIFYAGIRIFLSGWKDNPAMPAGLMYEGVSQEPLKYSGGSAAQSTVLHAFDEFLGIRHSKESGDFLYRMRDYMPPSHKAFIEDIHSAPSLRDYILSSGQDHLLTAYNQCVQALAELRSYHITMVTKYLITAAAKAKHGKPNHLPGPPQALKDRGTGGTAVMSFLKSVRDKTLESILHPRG

IDO1 = IDO1 (Homo sapiens, UniProt P14902); experiment: Enzyme-based IDO1 inhibition assay; conditions: for IDO1 % inhibition: isolated enzyme, 100 μM inhibitor
IDO1, sequence (P14902 whole entry, species assumed): as the sequence (P14902 whole entry) above

[5] = read-out: IDO1 IC50 (cell-based), HeLa cells, racemic mixtures
[6] = read-out: TDO IC50 (cell-based), human TDO in T-Rex cells, racemic mixtures
[7] = isolated enzyme, 100 μM inhibitor
[8] = read-out: IDO2 IC50 (cell-based), mouse IDO2 in T-Rex cells, racemic mixtures

Compound: Cl.NOC(CCCC(=O)Nc1ccccc1)c1cccc(Cl)c1 (centres unmarked) [Compound 5, 5-(Aminooxy)-5-(3-chlorophenyl)-N-phenylpentanamide hydrochlorie]
Selectivity for IDO1 over IDO2 and TDO (cell-based) ([2]; cell-based IC50 ratio): more than 20 fold

Compound: Cl.NOC(c1ccccc1)c1ccc(Cl)cc1Cl (centres unmarked) [Compound 6, O-(2,4-Dichlorophenylbenzyl)hydroxylamine hydrochloride]
Effect of human serum protein binding on inhibitory activity [1]: substantial reduction in inhibitory activity

Compound: NOC(CCc1ccccc1)c1ccccc1 (centres unmarked) [Compound 17, O-(1,3-diphenylpropyl)hydroxylamine hydrochloride]
IC50 [2]: 14.7 µM | IC50 [4]: 49.7 µM | inhibition at 100 µM (TDO; read-out: TDO % inhibition): 89.9% | inhibition at 100 µM (IDO2; read-out: IDO2 % inhibition): 76% | IC50 (IDO1): 16 µM | IC50 [3]: 19.3 µM

Compound: O-(2-Methoxy-α-phenylbenzyl)hydroxylamine hydrochloride [Compound 20]
IC50 [2, 5]: 1.11 µM | IC50 [4, 6]: 48.8 µM | IDO2 % inhibition (IDO2; [7]): 80.0% | IC50 [3, 8]: 16.5 µM

Compound: O-(3-Trifluoromethyl-α-phenylbenzyl)hydroxylamine hydrochloride [Compound 26]
IC50 [2, 5]: 1.73 µM | IC50 [4, 6]: 13.6 µM | IC50 (TDO; read-out: TDO IC50, isolated enzyme, racemic mixtures): 12 µM | IDO1 % inhibition (IDO1): 18% | IC50 [3, 8]: 24.7 µM

Compound: O-[4-Chloro-α-(2’-methyl,4’-methoxyphenyl)benzenemethyl]hydroxylamine hydrochloride [Compound 23]
IC50 [2, 5]: 1.76 µM | IC50 [4, 6]: 19.1 µM | TDO % inhibition (TDO; [7]): 66% | IDO1 % inhibition (IDO1): 85% | IC50 [3, 8]: 8.77 µM

More lines, now with the values ahead:

Effect of human serum protein binding on inhibitory activity [1]: relatively unaffected
Compound: Cl.NOC(c1ccccc1)c1cc(Cl)cc(Cl)c1 (stereo not drawn) [Compound 2, O-(3,5-Dichloro-α-phenylbenzyl)hydroxylamine hydrochloride]

Greater potency for IDO1 and TDO over IDO2 (cell-based) [3]: roughly 10 fold
Compound: Cl.NOC(c1ccccc1)c1ccccc1F (stereo not drawn) [Compound 16, O-(2-Fluoro-α-phenylbenzyl)hydroxylamine hydrochloride]

Greater potency for IDO1 and TDO over IDO2 (cell-based) [3]: roughly 10 fold
Compound: Cl.NOC(c1ccccc1)c1ccsc1 (centres unmarked) [Compound 21, O-(phenyl(thiophen-3-yl)methyl)hydroxylamine hydrochloride]

inhibition at 200 µM (IDO1; read-out: IDO1 % inhibition, isolated enzyme, 200 μM inhibitor): 18%
Compound: NOC(c1ccccc1)c1ccc(O)cc1 (stereo not drawn) [Compound 25, O-(4-Hydroxy-α-phenyl)-benzyl hydroxylamine hydrochloride]
